{"source": "patent US9857359B2", "about": "“Methods for determining drug efficacy using cereblon-associated proteins” (CELGENE CORPORATION, priority 2012, dated 2018)", "key": {"[1]": {"test_system": "Aiolos", "assay": "Aiolos inhibition by cohort in cancer patients, flow cytometry", "format": "in vivo, human", "conditions": "by time and dose", "procedure": "Cancer patients were administered Compound A at doses of 0.5 mg, 1 mg, 1.5 mg, 2 mg, 2.5 mg, 3 or 3.5 mg. Blood samples were drawn immediately prior to dosing and 1.5 hr and 5 hr post single dose of Compound A. Peripheral blood mononuclear cells were FICOLL®-isolated from whole blood samples and viably frozen in DMSO. The cells were washed twice with 2 mL of cold phosphate buffer saline (PBS), then permeabilized by adding 2 mL of cold BD CYTOFIX/CYTOPERM™ buffer and incubated on ice for 15 minutes. The cells were centrifuged then washed twice with BD PERM/WASH™ buffer, then resuspended in 40 μl of BD PERM/WASH™ buffer. Cells were stained with anti-CD3 or anti-CD19 antibody, and 20 μl of anti-Aiolos Ab (Santa Cruz Santa Cruz, rabbit polyclonal IgG, cat#sc-101982 at 1:200 dilution with staining buffer), or 20 μL of appropriate isotype controls to cells. Cells were mixed thoroughly and incubated at room temperature for 30 minutes in the dark, washed once with BD perm/wash buffer, then resuspended in […] of BD PERM/WASH™ buffer, and 20 μL of secondary antibody was added before analysis on a flow cytometer."}, "[2]": {"test_system": "Aiolos", "assay": "SimpleWestern of normal human CD19+ B cells, Aiolos", "format": "cell-based", "conditions": "various concentrations", "procedure": "(§1) Human B cells were isolated from 3 donors of whole bloods from the New Jersey Blood Center using B cell isolation kits from StemCell Technologies. IKZF family proteins were quantified using the automated capillary-based SimpleWestern System Sally (ProteinSimple). 100 ng of cell lysate protein or serial dilutions of recombinant proteins were mixed in reducing buffer with fluorescent Molecular Weight (MW) standards. After these samples were heated to 95° C. for 5 min, samples were loaded into each capillary tubes and proteins were separated based on MW sizes through stacking and separation matrices for 40 minutes at 250 Volts. Proteins were then immobilized to capillary walls using optimal photoactivated capture chemistry. Following protein immobilization, capillaries were incubated with a blocking reagent for 23 min and target proteins were probed with a specific primary antibody and horseradish peroxidase-conjugated anti-rabbit secondary antibody (ProteinSimple). A mixture of luminol and peroxide (ProteinSimple) was added, the resulting chemiluminescent signal was captured by a CCD camera, and the signal intensities were quantified and analyzed using Compass Software for Sally (ProteinSimple). The Ikaros family proteins in each sample were then calculated based on standard curve of human recombinant proteins. B-Actin was also used as an internal normalization control."}, "[3]": {"molecular_target": "T1, Pegasus (Homo sapiens, UniProt Q9H5V7)", "T1 construct": "endogenous in cells; host or cells: normal human CD19+ B cells", "T1 sequence (Q9H5V7 1-419)": "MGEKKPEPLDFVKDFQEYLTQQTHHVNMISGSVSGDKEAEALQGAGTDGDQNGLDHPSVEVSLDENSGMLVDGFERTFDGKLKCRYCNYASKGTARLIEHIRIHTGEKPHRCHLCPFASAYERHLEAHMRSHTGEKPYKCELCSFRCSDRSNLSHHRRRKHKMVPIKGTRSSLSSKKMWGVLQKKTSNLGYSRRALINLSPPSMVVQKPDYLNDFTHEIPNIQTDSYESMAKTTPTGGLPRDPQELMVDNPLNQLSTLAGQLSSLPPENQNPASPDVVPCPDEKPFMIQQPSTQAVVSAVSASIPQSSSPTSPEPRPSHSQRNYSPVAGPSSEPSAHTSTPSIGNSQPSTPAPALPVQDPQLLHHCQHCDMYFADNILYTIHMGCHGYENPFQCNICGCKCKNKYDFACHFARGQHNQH", "assay": "SimpleWestern of normal human CD19+ B cells, Pegasus", "format": "cell-based", "conditions": "various concentrations", "procedure": "as §1"}, "[4]": {"test_system": "Aiolos", "assay": "Aiolos flow cytometry in B and T cells of healthy volunteers", "format": "in vivo, human", "conditions": "doses greater than 0.3 mg", "procedure": "Healthy volunteers were administered placebo (n=10) or Compound B at doses of 0.03 mg, 0.1 mg, 0.3 mg, 1 mg, or 2 mg (N=6 each). Blood samples were drawn prior to dosing, or 3 hr, 12 hr, and 24 hr after dosing. 1. Blood samples were lysed and fixed immediately by mixing 1 volume of blood with 20 volumes of 1× Lyse/Fix buffer (BD Biosciences, cat#558049) and mixing thoroughly by inverting the tube several times. This sample mix was incubated in a 37° C. water bath for 10 minutes, and the cells were pelleted by centrifugation at 800×g for 5 minutes to remove the supernatant by aspiration. The cells were washed twice with 2 mL of cold phosphate buffer saline (PBS), then permeabilized by adding 2 mL of cold BD Cytofix/cytoperm buffer and incubated on ice for 15 minutes. The cells were centrifuged then washed twice with BD perm/wash buffer, then resuspended in 40 μL of BD perm/wash buffer. Cells were stained with anti-CD3 or anti-CD19 antibody, and 20 μL of anti-Aiolos Ab (Santa Cruz Santa Cruz, rabbit polyclonal IgG, cat#sc-101982 at 1:200 dilution with staining buffer), or 20 μL of appropriate isotype controls to cells. Cells were mixed thoroughly and incubated at room temperature for 30 minutes in the dark, washed once with BD perm/wash buffer, then resuspended in 80 μL of BD perm/wash buffer, and 20 μL of secondary antibody was added before analysis on a flow cytometer."}, "[5]": {"test_system": "human tumor xenograft", "assay": "Human tumor xenograft model (DLBCL)", "format": "in vivo"}, "[6]": {"test_system": "DLBCL cell lines", "assay": "Proliferation of DLBCL cell lines in vitro", "format": "cell-based"}, "[7]": {"test_system": "Aiolos", "assay": "Aiolos in siCRBN transfected primary CD3+ T cells", "format": "cell-based, human", "conditions": "siCRBN vs siControl, 6/24 hours", "from_the_text": "Primary T cells were isolated from human leukocytes (Blood Center of New Jersey, East Orange, N.J.) by centrifugation through FICOLL® centrifugation medium following the ROSETETTESEP™ protocol (Stem Cell Technologies, Vancouver, Canada)."}}}
{"smiles": "Cc1nc2cccc(N)c2c(=O)n1C1CCC(=O)NC1=O", "note": "(stereo not drawn) [Compound A, 3-(5-amino-2-methyl-4-oxo-4H-quinazolin-3-yl)-piperidine-2,6-dione]", "values": [{"measurement": "Aiolos inhibition in B cells", "setting": "[1]", "value": "Aiolos inhibition correlates with Compound A exposure"}, {"measurement": "Aiolos inhibition in T cells", "setting": "[1]", "value": "Aiolos inhibition correlates with Compound A exposure"}]}
{"smiles": "O=C1CC[C@H](N2Cc3c(OCc4ccc(CN5CCOCC5)cc4)cccc3C2=O)C(=O)N1", "note": "[Compound B, 3-(4-((4-(morpholinomethyl)benzyl)oxy)-1-oxoisoindolin-2-yl)piperidine-2,6-dione]", "values": [{"measurement": "Aiolos expression", "setting": "[2]", "value": "inhibited the expression of Ikaros and Aiolos"}, {"measurement": "Pegasus expression", "setting": "[3]", "value": "without affecting Helios, Pegasus, or β-Actin"}, {"measurement": "Aiolos expression in CD19+ B cells and CD3+ T cells", "setting": "[4]", "value": "inhibited Aiolos expression at significant levels"}]}
{"smiles": "Nc1cccc2c1CN(C1CCC(=O)NC1=O)C2=O", "note": "(stereo not drawn) [lenalidomide]", "values": [{"measurement": "Tumor growth", "setting": "[5]", "value": "delayed tumor growth"}, {"measurement": "Effect on non-ABC-DLBCL cells", "setting": "[6]", "value": "minimal effect on non-ABC-DLBCL cells"}, {"measurement": "Proliferation of ABC-DLBCL cells", "setting": "[6]; in vitro", "value": "preferentially suppressed proliferation of ABC-DLBCL cells"}]}
{"smiles": "Nc1cccc2c1C(=O)N(C1CCC(=O)NC1=O)C2=O", "note": "(stereo not drawn) [pomalidomide, reference compound]", "values": [{"measurement": "Effect in reducing or inhibiting the expression of Aiolos where CRBN is knocked-down", "setting": "[7]", "value": "significantly reduced as compared to the control cells with no CRBN knock-down"}]}
